Earlier results, collected in patent US20240009304A1, “USE OF NGF ANTIBODY IN CIPN PAIN” (Dartsbio Pharmaceuticals Ltd., priority 2020, published 2024).

Key:
[1] = system: neuronal NE reuptake; conditions: preclinical studies, background; cited from earlier work
[2] = system: monoamine oxidase; conditions: background; cited from earlier work
[3] = system: dopamine reuptake; conditions: preclinical studies, background; cited from earlier work
[4] = system: neuronal 5-HT reuptake; conditions: preclinical studies, background; cited from earlier work
[5] = system: dopaminergic receptor, adrenergic receptor, cholinergic receptor, histaminergic receptor, opioid receptor, glutamate receptor and GABA receptor; conditions: in vitro study, background; cited from earlier work
[6] = system: CIPN pain; conditions: background statement; cited from earlier work

SMILES	neuronal NE reuptake inhibition [1]	inhibition of monoamine oxidase [2]	inhibitory effect on dopamine reuptake [3]	neuronal 5-HT reuptake inhibition [4]	affinity with receptors [5]	effect in the treatment of CIPN pain [6]
CNCC[C@H](Oc1cccc2ccccc12)c1cccs1 [Duloxetine]	strong inhibitor	does not inhibit	relatively weak	strong inhibitor	no obvious affinity	proven to be effective
CN(C)CCC=C1c2ccccc2CCc2ccccc21 [amitriptyline]	–	–	–	–	–	do not seem to be more effective than placebo
NCC1(CC(=O)O)CCCCC1 [gabapentin]	–	–	–	–	–	do not seem to be more effective than placebo
CC(C)C[C@H](CN)CC(=O)O [pregabalin]	–	–	–	–	–	do not seem to be more effective than placebo
